One assay concerns the target Human cGAS enzyme (Homo sapiens (Human), UniProt Q8N884). As to the kind of experiment: Human cGAS enzyme assay (hcGAS IC50, in vitro), cGAMP formation by RapidFire MS.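 Also: recombinant human cGAS activated by 45 bp dsDNA with 30 µM each ATP and GTP, 90 min, cGAMP vs cyclic-di-GMP standard by MS, 8-point titration from 10 µM.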 The assay is classed as biochemical.
Assay [1] deals with pathway directly downstream of cGAS in cGAMP-stimulated THP1-Dual cells. As to the kind of experiment: cGAMP stimulated counter cell assay (THP1(cGAMP) IC50): IFN induction in cGAMP-stimulated THP1-Dual cells. To be noted: for IC50: Homo sapiens, THP1-Dual; for Ratio THP(cGAMP) IC50/ THP(vir) IC50: selectivity for cGAS inhibition. The assay is classed as cell-based, human. An excerpt:
6.2 Method: Human cGAS Cell Assay and cGAMP Stimulated Counter Cell Assay (THP1(vir) IC50 and THP1(cGAMP) IC50)
THP1-Dual™ cells (InvivoGen #thpd-nfis) expressing IRF dependent Lucia luciferase reporter were used as basis for both assays. For the detection of cellular cGAS activity cells were stimulated by a baculovirus (pFastbac-1, Invitrogen, no coding insert) infection that delivers the cGAS enzyme stimulating double-stranded DNA (measurement of THP1(vir) IC50).
For the counter assay, cells were stimulated by cGAMP (SigmaAldrich #SML1232) to activate the identical pathway independent and directly downstream of cGAS (measurement of THP1(cGAMP) IC50). Pathway activity was monitored by measuring the Lucia luciferase activity induced by either DNA stimulated cGAS enzyme activity (measurement of THP1(vir) IC50) or by cGAMP directly (measurement of THP1(cGAMP) IC50, counter assay).
Compounds were delivered in 10 mM DMSO solution, serially diluted and transferred to the 384 well assay plate (Greiner #781201) using an Echo acoustic dispenser. Typically, 8 concentrations were used with the highest concentration at 10 μM in the final assay volume followed by ˜1:5 dilution steps. DMSO concentration was set to 1% in the final assay volume. The 384 well assay plate contained 21 test compounds (column 1-22), and DMSO in column 23 and 24.
Cells, cultivated according to manufacturer conditions, were harvested by centrifugation at 300 g/10 min and were then resuspended and diluted to 1.66E5 cells/ml in fresh cell culture medium (RPMI 1640 (Gibco #A10491-01), 10% FCS (Gibco #10500), 1× GlutaMax (Gibco #35050-061), 1× Pen/Strep solution (Gibco #15140-122), 100 μg/ml Normocin (InvivoGen #ant-nr), 100 μg/ml Zeocin (InvivoGen #ant-zn), 10 μg/ml Blasticidin S (Life Technologies #A11139-03)). The baculovirus solution was then added 1:200 (have varied according to virus batch) to the cells (measurement of THP1(vir) IC50). […] 30 μL of the cell/virus-mix were added to each well of the compound plate from column 1-23 via MultiDrop Combi dispenser (5000 cells/well). In column 24, 30 μl/5000 cells/well without virus were added as a low control.
The plates were then incubated for 18 h at 37° C. in a humidified incubator.
Following that, 15 μL of QuantiLuc detection reagent (InvivoGen #rep-qlcg5) were added to each well using a MultiDrop Combi. Measurement was done immediately after the addition using an EnVision reader (US-luminescence read-mode).
Data Evaluation and Calculation:
For data evaluation and calculation, the measurement of the low control was set as 0% control and the measurement of the high control was set as 100% control. The IC50 values were calculated using the standard 4 parameter logistic regression formula. Calculation: [y=(a−d)/(1+(x/c)^b)+d], a=low value, d=high value; x=conc M; c=IC50 M; b=slope

Assay [2] concerns the target cellular cGAS activity in baculovirus-stimulated THP1-Dual cells (Homo sapiens (Human), UniProt Q8N884). As to the kind of experiment: Human cGAS cell assay (THP1(vir) IC50): IFN induction in virus-stimulated THP1-Dual cells, IRF Lucia luciferase reporter.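 Also: Eight-point dilution series starting at 10 µM, 1% DMSO, 18 h at 37 °C, luminescence read-out, virus-free wells as 0% and DMSO-treated virus-stimulated wells as 100%.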 The assay is classed as cell-based. Background: In a reporter assay the amount or activity of a reporter protein is the signal.

Assay [3] deals with cellular cGAS activity in dsDNA-stimulated human whole blood (Homo sapiens (Human), UniProt Q8N884). As to the kind of experiment: Human whole blood assay (hWB IC50): IFNα2a production after dsDNA transfection.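 Also: IFNα-2a in plasma measured by MSD electrochemiluminescence immunoassay after 22 h at 37 °C, 8-point dilution series from 10 µM top concentration, DMSO wells as controls.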 The class given is cell-based.
Chain of cellular cGAS activity in dsDNA-stimulated human whole blood (Q8N884 whole entry): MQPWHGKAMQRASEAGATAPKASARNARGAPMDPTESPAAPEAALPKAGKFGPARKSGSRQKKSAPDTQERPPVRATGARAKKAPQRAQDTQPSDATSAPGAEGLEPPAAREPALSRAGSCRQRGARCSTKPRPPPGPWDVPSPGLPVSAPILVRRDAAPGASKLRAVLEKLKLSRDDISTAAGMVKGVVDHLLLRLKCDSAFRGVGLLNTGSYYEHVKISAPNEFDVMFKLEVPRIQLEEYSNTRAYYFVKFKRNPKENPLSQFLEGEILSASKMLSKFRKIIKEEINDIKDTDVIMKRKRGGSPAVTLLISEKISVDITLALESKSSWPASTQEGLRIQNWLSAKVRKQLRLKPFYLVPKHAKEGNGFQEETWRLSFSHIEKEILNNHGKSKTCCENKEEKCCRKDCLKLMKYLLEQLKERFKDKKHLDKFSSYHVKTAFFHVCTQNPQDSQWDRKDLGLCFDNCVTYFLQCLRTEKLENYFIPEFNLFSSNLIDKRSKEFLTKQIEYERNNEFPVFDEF
Protocol: 6.3 Method: Human Whole Blood Assay (Human WB IC50) For the detection of cellular cGAS activity human whole blood was stimulated by transfection with double stranded DNA. Pathway activity was monitored by measuring the IFNα2α production.
Compounds were delivered as 10 mM DMSO solution and serially diluted and transferred to the 96-well cell culture plate (Corning #3595), prefilled with 20 μl OptiMEM (Gibco, #11058-021) in each well, using an Echo acoustic dispenser. Typically, 8 concentrations were used with the highest concentration at 10 μM in the final assay volume followed by ˜1:5 dilution steps. DMSO concentration was set to 0.1% in the final assay volume. The 96-well assay plate contained 10 test compounds, and DMSO in control wells.
Collection of human whole blood from 3 or more healthy donors (male or female, no medication for 7 days except contraceptive and thyroxine) as Na-Citrate blood (e.g. 3.8% in Monovettes from Sarstedt) was conducted in parallel. Whole blood was kept at room temperature for a maximum of 3 hours after collection until use in the assay.
160 μl of the whole blood samples was transferred to each well of the 96-well assay plates filled with compound/OptiMEM. All assay plates were prepared as duplicates with blood from different donors. Blood plates were kept at room temperature for 60 minutes and continuous shaking with 450 rpm, covered with the lid, but not sealed.
20 μl OptiMEM and 9.6:1 Fugene was added to all low control wells.
After covering assay plates with area seals and the lid, blood plates were kept at room temperature for 30 minutes and continuous shaking with 450 rpm, followed by an overnight incubation of 22 h at 37° C. in the incubator, without shaking.
For the detection of IFNα-2a in human plasma, the biotinylated capture antibody (Antibody set IFNA2, Meso Scale Diagnostics #B21VH-3, including coating and capture antibody) was diluted 1:17.5 in Diluent 100 (Meso Scale Diagnostics #R50AA-4), according to the manufacturer's directions. U-Plex MSD GOLD 96-well Small Spot Strepavidin SECTOR Plates (Meso Scale Diagnostics #L45SA-5) were coated with 25 μl diluted capture antibody. Coated plates were incubated for 60 min at room temperature under continuous shaking at 700 rpm. MSD IFNα-2a plates were washed three times with 150 μl wash buffer (1×HBSS, 0.05% Tween).
After blocking the plates with 100 μl block solution/well (1×HBSS with 0.2% Tween, 2% BSA) for 60 min at room temperature and continuous shaking at 700 rpm, plates were emptied as dry as possible by dumping just before continuing with the human plasma.
Whole Blood assay plates were centrifuged at 1600 rpm for 10 minutes. 25 μl of supernatant was transferred with a pipetting robot from each whole blood plate to the corresponding IFNα-2a plate.
Plates were sealed with microplate seals and kept at room temperature again under continuous shaking at 700 rpm for two hours.
Next MSD IFNα-2a plates were washed three times with 150 μl wash buffer (1×HBSS, 0.05% Tween), before adding 25 μl MSD SULFO-TAG IFNα-2a Antibody solution (1:100 diluted in Diluent 3 (Meso Scale Diagnostics #R50AP-2) to each well of the plates.
Afterwards plates were sealed with microplate seals and kept at room temperature again under continuous shaking at 700 rpm for two hours. Finally, MSD IFNα-2a plates were washed three times with 150 μl wash buffer (1×HBSS, 0.05% Tween). 150 μl 2× Read buffer was added to each well and plates were immediately measured with the MSD Sector S600 Reader using the vendor barcode.
For data evaluation and calculation,% control calculation of each well was based on the mean of high (DNA stimulated control) and mean of low (unstimulated control) controls by using the following formula:
The IC50-values were calculated using the standard 4 parameter logistic regression formula.
Setting [4] is: Table 1, cGAMP-stimulated THP1 cells, read-out: THP(cGAMP) IC50.
Setting [5] is: Table 1, virus-stimulated THP1 cells, read-out: THP(vir) IC50.
Where [6] appears, read: Table 1, dsDNA-stimulated human whole blood.

Like-named read-outs stand apart in the source and are kept apart here.

Chain of Human cGAS enzyme (Q8N884 whole entry): as above
Chain of cellular cGAS activity in baculovirus-stimulated THP1-Dual cells (Q8N884 whole entry): as above

With `C#Cc1cnc2c(c1)[C@@]1(F)CCN(C[C@@H]1C)C(=O)CCCOCCc1nc(c3oc4ccccc4c3n1)N1C[C@H](C[C@H]1C(=O)O)O2` [Example 18, (1R,9S,11S,34S)-4-ethynyl-1-fluoro-34-methyl-31-oxo-8,15,27-trioxa-6,12,23,32,37-pentaazaheptacyclo[30.2.2.1^9,12.1^13,24.0^2,7.0^14,22.0^16,21]octatriaconta-2,4,6,13,16,18,20,22,24(37)-nonaene-11-carboxylic acid], the IC50 (as a rule, the midpoint of a concentration-inhibition curve) was 6 nM on Human cGAS enzyme (Table 1), 4300 nM in assay [1] (setting [4]), 35 nM in assay [2] (setting [5]) and 18 nM in assay [3] (setting [6]). Also, the “Ratio THP(cGAMP) IC50/ THP(vir) IC50” value in assay [1] (Table 1) amounted to 122.
For `COc1cc(-c2cnc3c(c2)[C@@]2(F)CCN(C[C@@H]2C)C(=O)CCCOCCc2nc(c4oc5ccccc5c4n2)N2C[C@H](C[C@H]2C(=O)O)O3)c(F)cn1` [Example 20.03], in that order: 18 nM, 5900 nM, 18 nM, 38 nM and 321.
For `C[C@H]1CN2CC[C@]1(F)c1cc(-c3cnn(C)c3)cnc1O[C@H]1C[C@@H](C(=O)O)N(C1)c1nc(nc3c1oc1ccccc13)CCOCCCC2=O` [Example 20.02], in that order: 7 nM, 7900 nM, 8 nM, 10 nM and 946.
On to `C[C@H]1CN2CC[C@]1(F)c1cc(Cl)cnc1O[C@H]1C[C@@H](C(=O)O)N(C1)c1nc(nc3c1oc1ccccc13)COCCOCC2=O` [Example 14], for which the IC50 at Human cGAS enzyme (Table 1) was 15 nM; in assay [1] (setting [4]) it was over 10000 nM; in assay [2] (setting [5]), 36 nM; in assay [3] (setting [6]), 136 nM. For the same compound, the “Ratio THP(cGAMP) IC50/ THP(vir) IC50” value in assay [1] (Table 1) was 282.
On to `Cc1nc(N2C[C@@H](CC(=O)Nc3ccncc3)C[C@H]2C(=O)O)c2oc3ccccc3c2n1` [Example 28], for which the IC50 was 630 nM at Human cGAS enzyme (Table 2, compounds from WO 2020/142729 re-tested in the applicant's assay); over 17000 nM in assay [1] (Table 2, compounds from WO 2020/142729, read-out: THP1(cGAMP) IC50); over 32000 nM in assay [2] (Table 2, compounds from WO 2020/142729, read-out: THP1(vir) IC50); over 9990 nM in assay [3] (Table 2, compounds from WO 2020/142729).
With `C[C@H]1CN2CC[C@]1(F)c1cc(Cl)cnc1O[C@H]1C[C@@H](C(=O)O)N(C1)c1nc(nc3c1oc1ccccc13)CC(=O)NCCCC2=O` [Example 01, (1R,9S,11S,34S)-4-Chloro-1-fluoro-34-methyl-26,31-dioxo-8,15-dioxa-6,12,23,27,32,37-hexaaza-heptacyclo[30.2.2.1^9,12.1^13,24.0^2,7.0^14,22.0^16,21]octatriaconta-2,4,6,13(37),14(22),16(21),17,19,23-nonaene-11-carboxylic acid], the IC50 is 25 nM against Human cGAS enzyme (Table 1), 2900 nM in assay [1] (setting [4]), 150 nM in assay [2] (setting [5]) and 208 nM in assay [3] (setting [6]). For the same compound, the “Ratio THP(cGAMP) IC50/ THP(vir) IC50” value in assay [1] (Table 1) is 19.
Consider `C[C@H]1CN2CC[C@]1(F)c1cc(Cl)cnc1O[C@H]1C[C@@H](C(=O)O)N(C1)c1nc(nc3c1oc1ccccc13)C(F)(F)CCCCCC2=O` [Example 05, (1R,9S,11S,34S)-4-chloro-1,25,25-trifluoro-34-methyl-31-oxo-8,15-dioxa-6,12,23,32,37-pentaazaheptacyclo[30.2.2.1^9,12.1^13,24.0^2,7.0^14,22.0^16,21]octatriaconta-2,4,6,13,16,18,20,22,24(37)-nonaene-11-carboxylicacid], for which the IC50 on Human cGAS enzyme (Table 1) was determined as 12 nM; in assay [1] (setting [4]), 9400 nM; in assay [2] (setting [5]) it was 59 nM; in assay [3] (setting [6]), 114 nM. The “Ratio THP(cGAMP) IC50/ THP(vir) IC50” value in assay [1] (Table 1) is 158.
For the compound `C[C@H]1CN2CC[C@]1(F)c1cc(Cl)cnc1O[C@H]1C[C@@H](C(=O)O)N(C1)c1nc(nc3c1oc1ccccc13)CCOCCC2=O` [Example 38, (1R,9S,11S,33S)-4-chloro-1-fluoro-33-methyl-30-oxo-8,15,27-trioxa-6,12,23,31,36-pentaaza-heptacyclo[29.2.2.1^9,12.1^13,24.0^2,7.0^14,22.0^16,21]heptatriaconta-2,4,6,13(36),14(22),16(21),17,19,23-nonaene-11-carboxylic acid], the IC50 is 3 nM at Human cGAS enzyme (Table 1), over 10000 nM in assay [1] (setting [4]), 3 nM in assay [2] (setting [5]) and 8 nM in assay [3] (setting [6]). In addition, in assay [1] (Table 1), the “Ratio THP(cGAMP) IC50/ THP(vir) IC50” value is listed as 2964.
On to `C[C@H]1CN2CC[C@]1(F)c1cc(Cl)cnc1O[C@H]1C[C@@H](C(=O)O)N(C1)c1nc(nc3c1oc1ccccc13)CCCCCC2=O` [Example 36], for which the half-inhibitory concentration (IC50) against Human cGAS enzyme (Table 1) was 7 nM; in assay [1] (setting [4]), over 10000 nM; in assay [2] (setting [5]) it was 130 nM; in assay [3] (setting [6]) it was 79 nM. In assay [1] (Table 1), the “Ratio THP(cGAMP) IC50/ THP(vir) IC50” value was determined as 80.
`C[C@H]1CN2CC[C@]1(F)c1cc(Cl)cnc1O[C@H]1C[C@@H](C(=O)O)N(C1)c1nc(nc3c1oc1ccccc13)CCCCCOC2=O` [Example 22, (1R,9S,11S,34S)-4-chloro-1-fluoro-34-methyl-31-oxo-8,15,30-trioxa-6,12,23,32,37-pentaaabestacyclo[30.2.2.1^9,12.1^13,24.0^2,7.0^14,22.0^16,21]octatriaconta-2,4,6,13(37),14(22),16(21),17,19,23-nonaene-11-carboxylic acid]: the IC50 was 45 nM at Human cGAS enzyme (Table 1), over 10000 nM in assay [1] (setting [4]), 490 nM in assay [2] (setting [5]) and 1560 nM in assay [3] (setting [6]). Moreover, the “Ratio THP(cGAMP) IC50/ THP(vir) IC50” value in assay [1] (Table 1) is 20.
Consider `C[C@H]1CN2CC[C@]1(F)c1cc(Cl)cnc1O[C@H]1C[C@@H](C(=O)O)N(C1)c1nc(nc3c1oc1ccccc13)CCCOCCC2=O` [Example 23, (1R,9S,11S,34S)-4-Chloro-1-fluoro-34-methyl-31-oxo-8,15,28-trioxa-6,12,23,32,37-pentaazabestacyclo[30.2.2.1^9,12.1^13,24.0^2,7.0^14,22.0^16,21]octatriaconta-2,4,6,13(37),14(22),16(21),17,19,23-nonaene-11-carboxylic acid], for which the IC50 on Human cGAS enzyme (Table 1) is 12 nM; in assay [1] (setting [4]), 10000 nM; in assay [2] (setting [5]) it was 69 nM; in assay [3] (setting [6]) it was 114 nM. Besides, the “Ratio THP(cGAMP) IC50/ THP(vir) IC50” value in assay [1] (Table 1) is given as 148.
With `C[C@H]1CN2CC[C@]1(F)c1cc(Cl)cnc1O[C@H]1C[C@@H](C(=O)O)N(C1)c1nc(nc3c1oc1ccccc13)COCCCCCC2=O` [Example 12], the IC50 on Human cGAS enzyme (Table 1) came to 17 nM; in assay [1] (setting [4]), 10000 nM; in assay [2] (setting [5]) it was 610 nM; in assay [3] (setting [6]), 84 nM. In assay [1] (Table 1), the “Ratio THP(cGAMP) IC50/ THP(vir) IC50” value amounted to 17.
For `C[C@H]1CN2CC[C@]1(F)c1cc(Br)cnc1O[C@H]1C[C@@H](C(=O)O)N(C1)c1nc(nc3c1oc1ccccc13)CCOCCCC2=O` [Example 17], the IC50 at Human cGAS enzyme (Table 1) amounted to 13 nM; in assay [1] (setting [4]), 5600 nM; in assay [2] (setting [5]) it was 140 nM; in assay [3] (setting [6]), 96 nM. For the same compound, the “Ratio THP(cGAMP) IC50/ THP(vir) IC50” value in assay [1] (Table 1) is on record as 40.
Turning to `C[C@H]1CN2CC[C@]1(F)c1cc(Cl)cnc1O[C@H]1C[C@@H](C(=O)O)N(C1)c1nc(nc3c1oc1ccccc13)C(F)(F)COCCCC2=O` [Example 21, (1R,9S,11S,34S)-4-chloro-1,25,25-trifluoro-34-methyl-31-oxo-8,15,27-trioxa-6,12,23,32,37-penta-azaheptacyclo[30.2.2.1^9,12.1^13,24.0^2,7.0^14,22.0^16,21]octatriaconta-2,4,6,13(37),14(22),16(21),17,19,23-nonaene-11-carboxylic acid], the IC50 at Human cGAS enzyme (Table 1) came to 5 nM; in assay [1] (setting [4]) it was 10000 nM; in assay [2] (setting [5]) it was 3 nM; in assay [3] (setting [6]), 7 nM. The “Ratio THP(cGAMP) IC50/ THP(vir) IC50” value in assay [1] (Table 1) came out at 3281.

The values are drawn from patent US20240189315A1, “Cyclic Pyridine Derivatives as cGAS Inhibitors” (Boehringer Ingelheim International GmbH, priority 2022, published 2024).
